Laboratory results: patent US20230099204A1, “PHARMACEUTICAL COMPOSITION FOR PREVENTION OR TREATMENT OF CANCER IN WHICH KRAS MUTATION AND ACTIVATED RON ARE PRESENT” (WELLMARKER BIO CO., LTD., priority 2020, published 2023)
Counter-ions that a name gives are not always drawn.

Key:
[1] = test system: HCT8 (KRAS G13D/pTyr-wtRON(+)); experiment: Cell line HCT8-transplanted mouse model; assay type: in vivo, BALB/c nude mice; details: 10 mg/kg, oral, once a day for 4 weeks
Description: 5-Week-old female BALB/c nude mice were purchased and acclimatized for 1 week. Then, human colorectal cancer patient-derived cell line SW620 (KRAS
G12V/mRON Δ155) at 5×10^6 cells/mouse was injected subcutaneously (100 μL) into the right dorsal side of the mice. The compound of Example 1 was orally administered when the tumor reached a size of about 100 mm^3. The drug was administered once a day for 4 weeks, and tumor size and mouse body weight were measured twice a week. After completion of the drug administration, the experimental animals were euthanized, and then the tumors were extracted and weighed for comparative analysis.
A portion of the extracted tumor tissue was fixed in 10% formalin and processed into a paraffin block. Then, the block was made into sections. Staining of the slide was performed through immunochemical staining. Another portion of the extracted tumor tissue was subjected to lysis, and then Western blotting was used to identify changes in expression of respective proteins.
The experiment was conducted in the same method as the procedure of Experimental Example 3, except that human colorectal cancer patient-derived cell line HCT8 (KRAS G13D/pTyr-wtRON(+)) was used in place of the human colorectal cancer patient-derived cell line SW620 (KRAS G12V/mRON Δ155), and the respective compounds of Example 1, positive control 1, and positive control 2 were administered.

[2] = test system: HCT15; experiment: MTS assay, cytotoxicity on colorectal cancer cell line HCT15; assay type: cell-based; details: Homo sapiens, HCT-15, RON Δ160, KRAS G13D, 72 hours
Description: (§1) MTS assay was performed to compare cytotoxicity of the compounds of Example 1, Example 2, Example 3, Example 4, Example 5, Example 6, and positive control 1 on a colorectal cancer cell line, and a cell death rate of the colorectal cancer cell line was analyzed to compare anticancer activity of the compounds.
(§2) The MTS assay was performed by seeding each colorectal cell line in a 96-well plate at 1,000 cells per well, and after 24 hours, performing treatment with the compounds of Examples 1 to 6 and positive control 1 at various concentrations (0.000001 μM to 10 μM) in 100 μL of 10% FBS-RPMI medium (WELGENE Inc.) per well. The cells were incubated for 72 hours. Then, 20 μL of MTS solution (Promega) was added thereto, and the cells were incubated for 2 hours. Then, the absorbance was measured at 490 nm. The IC50 values for the compounds of Examples 1 to 6 and positive control 1 were calculated using GraphPad Prism™ 5 to investigate cytotoxicity.

[3] = test system: colorectal cancer cell line; experiment: MTS assay, summary over the colorectal cancer cell lines; assay type: cell-based; details: summary in words of Table 1
Description: as §1, §2

[4] = test system: SW480; experiment: MTS assay, cytotoxicity on colorectal cancer cell line SW480; assay type: cell-based; details: Homo sapiens, RON Δ155, KRAS G12V, 72 hours
Description: as §1, §2

[5] = test system: SW620; experiment: Cell death induction, trypan blue cell counting, SW620; assay type: cell-based, human; details: 1 μM, 48 hours; for cell death rate: SW620 (KRAS G12V/mRON Δ155), FIG. 2
Description: (§3) Based on the results above, to identify the cell death-inducing ability of the compounds of Example 1 and positive control 1, which are representative materials, preparation was performed by seeding respective colorectal cancer cell lines SNU-[…], HCT8, T84, and SW620 onto 60-mm plates at 3×10^5 cells, and then incubation was performed for 24 hours. Thereafter, treatment with each of Example 1 and positive control 1 was performed at 1μM and incubation was performed for 48 hours. In addition, preparation was performed by seeding the cell line SW620 onto a 60-mm plate at 3×10^5 cells, and then incubation was performed for 24 hours. Thereafter, treatment with each of Example 1, positive control 1, positive control 2, and positive control 3 was performed at 1 μM. After 48 hours, the cells and cell suspensions were collected by treatment with trypsin, resuspended in 1× PBS and stained using a trypan blue solution (Sigma, cat# T8154). The stained cells were counted using a hemocytometer. Cell counting was repeated, and the mean and the standard deviation were calculated.

[6] = test system: DLD1; experiment: MTS assay, cytotoxicity on colorectal cancer cell line DLD1; assay type: cell-based; details: Homo sapiens, DLD-1, RON wt, KRAS G13D, 72 hours
Description: as §1, §2

[7] = test system: HCT8; experiment: MTS assay, cytotoxicity on colorectal cancer cell line HCT8; assay type: cell-based; details: Homo sapiens, HCT-8, RON wt, KRAS G13D, 72 hours
Description: as §1, §2

[8] = test system: T84; experiment: Cell death induction, trypan blue cell counting, T84; assay type: cell-based; details: T84 with a RON mutation; 1 μM; 48 hours; FIG. 1
Description: as §3, with “hours.” for “hours. In addition, preparation was performed by seeding the cell line SW620 onto a 60-mm plate at 3×10^5 cells, and then incubation was performed for 24 hours. Thereafter, treatment with each of Example 1, positive control 1, positive control 2, and positive control 3 was performed at 1 μM.”

[9] = test system: SNUC2A; experiment: MTS assay, cytotoxicity on colorectal cancer cell line SNUC2A; assay type: cell-based; details: RON mutation negative, KRAS G12D, 72 hours
Description: as §1, §2

[10] = test system: SW620; experiment: MTS assay, cytotoxicity on colorectal cancer cell line SW620; assay type: cell-based; details: Homo sapiens, SW-620, RON Δ155, KRAS G12V, 72 hours
Description: as §1, §2

[11] = test system: T84; experiment: MTS assay, cytotoxicity on colorectal cancer cell line T84; assay type: cell-based; details: Homo sapiens, RON Δ165, KRAS G13D, 72 hours
Description: as §1, §2

CCOc1ccn(-c2ccc(F)cc2)c(=O)c1C(=O)Nc1ccc(Oc2ccnc(N)c2Cl)c(F)c1 [Positive control 1, N-{4-[(2-amino-3-chloro-4-pyridinyl)oxy]-3-fluorophenyl}-4-ethoxy-1-(4-fluorophenyl)-2-oxo-1,2-dihydro-3-pyridinecarboxamide, reference compound] was tested, and the “Tumor growth inhibition (TGI, %)” value [1] was −7.5 ± 36.3%, the IC50 [2] was 3240 nM and the “efficiency / response in MTS assay over the cell lines” value [3] was “high IC50 values in most cell lines”. The IC50 [4] was 3540 nM, the cell death rate [5] was “cell death was not induced” and the “cell death induction efficacy” value ([5]; SW620 with a RON mutation, FIG. 1) was “little response”. For the same compound, the IC50 [6] was 4720 nM, the IC50 [7] was 7320 nM and the “cell death induction efficacy” value [8] was “little response”. The IC50 [9] was > 10000 nM, the IC50 [10] was 5000 nM and the IC50 [11] was 8400 nM.
COc1cc2c(Oc3ccc(NC(=O)c4c5c(cn(-c6ccc(F)cc6)c4=O)CCO5)cc3F)ccnc2cc1OCCN1CCOCC1 [Example 5, N-(3-fluoro-4-((6-methoxy-7-(2-morpholinoethoxy)quinolin-4-yl)oxy)phenyl)-5-(4-fluorophenyl)-6-oxo-2,3,5,6-tetrahydrofuro[3,2-c]pyridine-7-carboxamide] showed an IC50 [2] of 390 nM, an IC50 [4] of 110 nM and an IC50 [6] of 230 nM. For the same compound, the IC50 [7] was 780 nM, the IC50 [9] was 3820 nM and the IC50 [10] was 1000 nM. For the same compound, the IC50 [11] was 810 nM.
With COc1cc2nccc(Oc3ccc(NC(=O)C4(C(=O)Nc5ccc(F)cc5)CC4)cc3)c2cc1OC [Positive control 3, N-(4-{[6,7-bis(methyloxy)quinoline-4-yl]oxy}phenyl)-N′-(4-fluorophenyl)cyclopropane-1,1-dicarboxamide] the cell death rate [5] was “cell death was not induced”.
Work on CCOc1ccn(-c2ccccc2)c(=O)c1C(=O)Nc1ccc(Oc2ccnc3cc(-c4ccc(CN5CCN(C)CC5)cn4)sc23)c(F)c1 [Example 3, 4-ethoxy-N-{3-fluoro-4-[(2-{5-[(4-methylpiperazin-1-yl)methyl]pyridin-2-yl}thieno[3,2-b]pyridin-7-yl)oxy]phenyl}-2-oxo-1-phenyl-1,2-dihydropyridine-3-carboxamide hydrochloride] yielded an IC50 [2] of 390 nM, an IC50 [4] of 660 nM and an IC50 [6] of 300 nM. The IC50 [7] was 480 nM, the IC50 [9] was 4600 nM and the IC50 [10] was 260 nM. For the same compound, the IC50 [11] was 220 nM.
In the case of C[C@@H](Oc1cc(-c2cnn(C3CCNCC3)c2)cnc1N)c1c(Cl)ccc(F)c1Cl [Positive control 2, reference compound], the “Tumor growth inhibition (TGI, %)” value [1] is reported as 23.2 ± 7.8% and the cell death rate [5] is reported as “cell death was not induced”.
Work on CCOc1ccn(-c2ccccc2)c(=O)c1C(=O)Nc1ccc(Oc2ccnc3cc(-c4ccc(CNCCOC)cn4)sc23)c(F)c1 [Example 2, 4-ethoxy-N-(3-fluoro-4-{[2-(5-{[(2-methoxyethyl)amino]methyl}pyridine-2-yl)thieno[3,2-b]pyridine-7-yl]oxy}phenyl)-2-oxo-1-phenyl-1,2-dihydropyridine-3-carboxamide hydrochloride] yielded an IC50 [2] of 220 nM, an IC50 [4] of 1250 nM and an IC50 [6] of 210 nM. It also gave an IC50 [7] of 260 nM, an IC50 [9] of 4440 nM and an IC50 [10] of 370 nM. The IC50 [11] was 210 nM.
Cn1cnc(-c2cc3nccc(Oc4ccc(NC(=O)c5c6c(cn(-c7ccc(F)cc7)c5=O)CCO6)cc4F)c3s2)c1 [Example 4] was tested, and the IC50 [2] was 1270 nM, the “efficiency / response in MTS assay over the cell lines” value [3] was “high efficiency in the cell lines (HCT8 and DLD-1)” and the IC50 [4] was 670 nM. The IC50 [6] was 660 nM, the IC50 [7] was 1200 nM and the IC50 [9] was 7530 nM. For the same compound, the IC50 [10] was > 10000 nM and the IC50 [11] was 170 nM.
COc1cc2c(Oc3ccc(NC(=O)c4c5c(cn(-c6ccc(F)cc6)c4=O)CCO5)cc3F)ccnc2cc1OCCCN1CC(C#N)C1 [Example 6, N-(4-((7-(3-(3-cyanoazetidine-1-yl)propoxy)-6-methoxyquinoline-4-yl)oxy)-3-fluorophenyl)-5-(4-fluorophenyl)-6-oxo-2,3,5,6-tetrahydrofuro[3,2-c]pyridine-7-carboxamide] showed an IC50 [2] of 140 nM, an IC50 [4] of 320 nM and an IC50 [6] of 170 nM. The IC50 [7] was 330 nM, the IC50 [9] was 1320 nM and the IC50 [10] was 110 nM. The IC50 [11] was 200 nM.
